Data reported in patent US20060089410A1, “Combination of chemotherapeutic drugs for increasing antitumor activity” (Titan Pharmaceuticals, Inc., priority 2002, published 2006).

How the values were obtained:
[1] = tested on: Calu-6 anaplastic lung carcinoma cells; assay: Crystal violet microtiter assay, Pivanex then cytotoxic drug, Calu-6; type: cell-based
Experimental: (§1) T24 Bladder transitional carcinoma cells, Calu-6 anaplastic lung carcinoma cells, and SK-MES-1 squamous lung cell carcinoma cell cultures were purchased from the American Type Culture Collection (Manassas, Va.). All cell lines were cultured in RPMI-1640 with 10% fetal calf serum. For culture in microtiter dishes, cells were plated at a density of 10^4 cells/well and incubated at 37° C., 5% CO2 overnight.
(§2) After overnight incubation, drugs were added to wells in quadruplicate and incubated for 6 to 96 hours in the presence or absence of the oxyalkylene containing compound. […] the media was removed, fresh media were added with cytotoxic drug, and the cultures were incubated for another 6 hours.
(§3) The wells were then washed and medium without drug was added to each well. Microtiter plates were subsequently incubated for an additional 3 days before cell density was determined by a Crystal Violet Assay. Some cultures were alternatively fixed in methanol and stained with hematoxylin and eosin (H&E) stain for 5 minutes prior to microphotography.
(§4) PIVANEX (pivaloyloxymethyl butyrate) was obtained from Titan Pharmaceuticals Inc. (South San Francisco, Calif.) and was admixed with 0.05% Intralipid™ (Fresenius Kabi, Clayton, N.C.) prior to addition to culture media. The cytotoxic drugs gemcitabine (Gemzar; Eli Lilly and Co., Indianapolis, Ind.), cisplatin (Platinol, Bristol-Myers Squibb Co., Princeton, N.J.), paclitaxel (Taxol; Bristol-Myers Squibb Co., Princeton, N.J.), and docetaxel (Taxotere, Aventis Pharmaceuticals Products, Inc., Bridgewater, N.J.) were studied with PIVANEX.
(§5) Cells in microtiter wells were rinsed with PBS and fixed in two volumes of 100% cold methanol for 5 minutes. One volume of 0.5% crystal violet in 20% methanol was added and the attached cells stained for 10 minutes. The cells were then washed and crystal violet was eluted with 0.1 N sodium citrate buffer and read on an ELISA plate reader at 490 nm.

c-Myc oncogene [2] = assay: c-Myc oncogene expression by RT-PCR, T24 cells; type: cell-based, human; details: for c-Myc oncogene expression: 96 hour exposure
Experimental: as §1, §2
(§6) Tumor cell culture mRNA was isolated by standard methods, and RT-PCR was conducted to determine levels of c-Myc oncogene expression. The c-Myc primer pair used for RT-PCR cycling was:
(§7) The c-Myc primer pair was cycled by the following program: 95° C. for 3 min., then 30 cycles of (95° C. for 1 min., then 55° C. for 1 min., then 72° C. for 1 min.) followed by holding temperature at 72° C. for 7 min. before ramping temperature to 4° C. Samples were analyzed quantitatively by 1% agarose gel electrophoresis and gel densitometry.

[3] = tested on: H23 (NCI-H23) NSCLC cell line; assay: MTS growth inhibition assay, sequencing of Pivanex and docetaxel, H23; type: cell-based, human; details: after 24 hour exposure
Experimental: Human Non-Small Cell Lung Carcinoma Cell Lines, H522 and NCI-H23, were evaluated for growth inhibitory activity of Pivanex, alone and in combination with the standard chemotherapeutic agent, docetaxel. Cells were treated for three days with Pivanex followed by 24 hours of exposure to docetaxel or the cells were treated for 24 hours with docetaxel followed by three days of exposure to Pivanex. The cell growth inhibition was judged at the end of the 4-day experiments by a standard staining technique using MTS tetrazolium vital stain. […]
Exponentially growing cells were harvested with trypsin (0.05%)/EDTA (0.02%) and re-suspended in fresh medium containing 10% FBS. […] Absorbance was documented on a Dynex HD microplate reader at a wavelength of 490 nm. IC50 values were determined by using the Prism® GraphPad software from 3 different tests, each of which involved 4 replicates for each dose determination. The data are presented as percent growth inhibition, where 0% represents the mean value in wells to which only vehicle (0.1% DMSO) was added and was calculated as follows: % Growth Inhibition=(1−(ODtest/ODvehicle))×100 where ODtest is the optical density of the tested sample, OD vehicle is the optical density of the vehicle in which each respected drug is dissolved.

[4] = Biological evaluations (myeloablation, myelosuppression)
Excerpt: Pivaloyloxymethyl butyrate functions as a differentiating agent with activity against multiple tumor cell types in culture.

tumor cells = assay: Growth inhibitory and cytotoxic effects on tumor cells in tissue culture; type: cell-based; details: tumor cell line dependent
Excerpt: Testing of a pivaloyloxymethyl butyrate dose and schedule interactions with chemotherapy in tissue culture was undertaken to facilitate clinical planning.
The observed morphologic changes consistent with a more differentiated phenotype prompted investigation of oncogene expression following exposure to pivaloyloxymethyl butyrate.

c-Myc oncogene [5] = assay: c-Myc oncogene expression, SK-MES-1 cells; type: cell-based; details: SK-MES-1, 96 hours in culture
Experimental: as §1, §2, §6, §7

[6] = tested on: SK-MES-1 squamous lung cell carcinoma cell; assay: Crystal violet microtiter assay, Pivanex then cytotoxic drug, SK-MES-1; type: cell-based; details: for SK-MES-1 cancer cell viability (A^490 Absorbance): paclitaxel 0 μM
Experimental: as §1, §2, §3, §4, §5

CCCC(=O)OCOC(=O)C(C)(C)C [Pivanex, pivaloyloxymethyl butyrate]
Calu-6 cancer cell viability (A^490 Absorbance) ([1]; Pivanex 10 μM, cisplatin 0 μM): 0.617
Calu-6 cancer cell viability (A^490 Absorbance) ([1]; Pivanex 10 μM, docetaxel 0 nM): 0.732
Calu-6 cancer cell viability (A^490 Absorbance) ([1]; Pivanex 10 μM, gemcitabine 0 nM): 0.617
Calu-6 cancer cell viability (A^490 Absorbance) ([1]; Pivanex 50 μM, cisplatin 0 μM): 0.577
Calu-6 cancer cell viability (A^490 Absorbance) ([1]; Pivanex 50 μM, docetaxel 0 nM): 0.553
Calu-6 cancer cell viability (A^490 Absorbance) ([1]; Pivanex 50 μM, gemcitabine 0 nM): 0.577
Calu-6 cancer cell viability (A^490 Absorbance) ([1]; Pivanex 100 μM, cisplatin 0 μM): 0.284
Calu-6 cancer cell viability (A^490 Absorbance) ([1]; Pivanex 100 μM, gemcitabine 0 nM): 0.284
c-Myc oncogene expression (c-Myc oncogene [2]; Pivanex 10 μM): 760 PCR units
c-Myc oncogene expression (c-Myc oncogene [2]; Pivanex 25 μM): 972 PCR units
c-Myc oncogene expression (c-Myc oncogene [2]; Pivanex 50 μM): 966 PCR units
c-Myc oncogene expression (c-Myc oncogene [2]; Pivanex 100 μM): 640 PCR units
c-Myc oncogene expression (c-Myc oncogene [2]; Pivanex 200 μM): 560 PCR units
concentrations (as low as) that decreased the expression of c-Myc oncogene (c-Myc oncogene [2]; T-24, 96 hours in culture): 10 to 50 µM
cell growth with agent alone [3]: steep increase in H23 cell growth
myeloablation / myelosuppression [4]: non-myeloablative and non-myelosuppressive
concentrations at which cytotoxicity was observed (tumor cells; 6-hour exposure): greater than 125 μM
concentrations at which cytotoxicity was observed (tumor cells; 72 hours of treatment): greater than 25 μM
concentrations (as low as) that decreased the expression of c-Myc oncogene (c-Myc oncogene [5]): 10 to 50 µM
SK-MES-1 cancer cell viability (A^490 Absorbance) ([6]; Pivanex 10 μM): 0.743
SK-MES-1 non-small cancer cell viability (A^490 Absorbance) ([6]; Pivanex 25 μM alone): 1.852
SK-MES-1 cancer cell viability (A^490 Absorbance) ([6]; Pivanex 50 μM): 0.769
SK-MES-1 non-small cancer cell viability (A^490 Absorbance) ([6]; Pivanex 100 μM alone): 1.908
SK-MES-1 non-small cancer cell viability (A^490 Absorbance) ([6]; Pivanex 200 μM alone): 1.952
